Experiment [1] deals with NA with combination of G248R and K249E mutations. The settings on record: 'low levels' of resistance; cited from earlier work.
The target in experiment [2] is influenza A/H3N2 NA, wild-type (baseline) at loci 93, 155, 251 (Influenza A virus (H3N2), UniProt V9SU56). The format is biochemical. The settings on record: wild-type (baseline) at each locus; 10 samples tested; mean; read-out: mean drug concentration required to inhibit 50% NA activity.

Turning to `CCOC(=O)C1=C[C@@H](OC(CC)CC)[C@H](NC(C)=O)[C@@H](N)C1` [Oseltamivir, oseltamivir], the IC50 increase in experiment [1] is listed as below 10 fold.
Take `CCC(CC)[C@H](NC(C)=O)[C@@H]1[C@H](O)[C@@H](C(=O)O)C[C@H]1N=C(N)N` [Peramivir, peramivir]: the IC50 in experiment [2] stood at 0.2 ± 0.1 nM.
Turning to `CC(=O)N[C@H]1[C@H]([C@H](O)[C@H](O)CO)OC(C(=O)O)=C[C@@H]1N=C(N)N` [Zanamivir, zanamivir], in experiment [1], the IC50 increase is recorded as below 10 fold.

Source of the values: article PMC4311985, “Molecular Surveillance of Antiviral Drug Resistance of Influenza A/H3N2 Virus in Singapore, 2009-2013” (PLoS ONE, 2015).
